Like-named read-outs stand apart in the source and are kept apart here.
Legend:
KDM5D = target: T1, KDM5D (Homo sapiens, UniProt Q9BY66); assay: Biochemical KDM inhibition assay (LANCE), KDM5D; settings: read-out: Biochemical IC50 KDM 5D
T1 construct: host or cells: Sf9 cells
Description: (§1) Representative compounds were characterized for their inhibition of KDM5 using biotinylated histone substrates. Inhibition was measured in vitro (CEREP Poitier, Le Bois l'Evêque, France) following experimental conditions described in Table 2. Briefly, the test compound, reference compound or water (control) was mixed with about 2-20 ng of recombinant, Human enzymes expressed in Sf9 cells in a buffer containing 45 mM Hepes/Tris (pH 7), 5 μM FAS, 100 μM ascorbic acid, 10 μM 2-oxoglutarate, 0.01% Tween 20 and 0.01% BSA. Thereafter, the reaction was initiated by adding the biotin-labeled substrate, and the mixture was incubated for 10-30 min at room temperature. For basal control measurements, the enzyme was omitted from the reaction mixture. Following incubation the reaction was stopped by adding 1 mM EDTA. After 5 min, the anti-methyl histone antibody labeled with europium chelate and the Ulight streptavidine (Perkin Elmer Waltham, Mass.) were added. After 60 min more, the fluorescence transfer was measured at λex=320 nm and λem=620 and λem=665 nm using a microplate reader (Envision, Perkin Elmer) (LANCE). The enzyme activity was determined by dividing the signal measured at λem=665 nm by that measured at 620 nm (ratio).

KDM5A = KDM5A (Homo sapiens, UniProt P29375); assay: Biochemical KDM inhibition assay (LANCE), KDM5A; settings: read-out: Biochemical IC50 KDM 5A
Description: as §1

KDM5B = target: T2, KDM5B (Homo sapiens, UniProt Q9UGL1); assay: Biochemical KDM inhibition assay (LANCE), KDM5B; settings: read-out: Biochemical IC50 KDM 5B
T2 construct: host or cells: Sf9 cells
Description: as §1

KDM4E = target: T3, KDM4E (Homo sapiens, UniProt B2RXH2); assay: Biochemical KDM inhibition assay (LANCE), KDM4E; settings: read-out: Biochemical IC50 KDM 4E
T3 construct: host or cells: Sf9 cells
T3 sequence (B2RXH2 1-506): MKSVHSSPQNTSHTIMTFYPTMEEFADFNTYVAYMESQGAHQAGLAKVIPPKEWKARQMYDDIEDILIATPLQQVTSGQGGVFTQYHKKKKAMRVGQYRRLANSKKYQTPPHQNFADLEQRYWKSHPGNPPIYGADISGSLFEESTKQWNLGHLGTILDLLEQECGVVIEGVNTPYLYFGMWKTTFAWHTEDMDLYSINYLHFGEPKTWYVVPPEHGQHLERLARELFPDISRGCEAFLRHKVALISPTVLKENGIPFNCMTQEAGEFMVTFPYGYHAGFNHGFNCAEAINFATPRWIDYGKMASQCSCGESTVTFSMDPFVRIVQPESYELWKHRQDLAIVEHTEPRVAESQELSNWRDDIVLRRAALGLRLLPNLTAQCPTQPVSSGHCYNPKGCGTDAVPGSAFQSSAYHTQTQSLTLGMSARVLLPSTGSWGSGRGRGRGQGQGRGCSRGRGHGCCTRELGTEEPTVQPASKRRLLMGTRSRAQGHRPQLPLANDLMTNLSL

HBV [1] = assay: PHH screening protocol: HBsAg and HBeAg levels by MSD ELISA; type: cell-based, Hepatitis B Virus; settings: Hepatitis B virus
Description: HBV antiviral activity was assessed in primary human hepatocytes (PHH) in a 96-well format. PHH were (Life Technologies, Chicago, 11) plated on collagen coated tissue culture plates using Plating Media containing William's Medium E supplemented with 1% Penicillin/Streptomycin, 4 μg/mL human recombinant insulin, 2 mM glutamax, 15 mM Hepes, 1 μM dexamethasone and 5% fetal bovine serum (Life Technologies, Cat#A12176-01 Life Technologies, Chicago, Ill.). After a 4-hour incubation at 37° C., cells were switched to Maintenance Media (Cat#CM4000-A15564 Life Technologies, Chicago, Ill.) containing William's Medium E supplemented with 0.5% Penicillin/Streptomycin, 6.25 μg/mL human recombinant insulin, 6.25 μg/mL human transferrin, 6.25 ng/mL selenous acid, 1.25 mg/mL bovine serum albumin, 5.35 μg/mL linoleic acid, 2 mM glutamax, 15 mM Hepes, 0.1 μM dexamethasone, 2% fetal bovine serum, and 2% DMSO (Cat#D2650 Sigma, St. Louis, Mo.). On the next day, cells were infected with approximately 500 genome equivalent of selected HBV clinical isolates (21P (GTA), 32P (GTA), 91P (GTA), AD38 (GTD), 65P (GTD) or 30P (GTE); ProteoGenex, Culver City, Calif.) per cell in Maintenance Media supplemented with 4% PEG 8000 (Cat#V3011 Promega, Madison, Wis.). After 24 hour incubation cells were washed three times with William's Medium E and fed with fresh Maintenance Media. Small molecule inhibitors targeting KDMs were serially diluted in Maintenance Media and added to cells at 3 days post infection (p.i.). Media with compounds was replenished every 2-3 days. Media collected on various days was used for determination of HBsAg and HBeAg levels by MSD ELISA, and HBV RNA by qPCR. All data were converted into percentages of the untreated control and non-linear regression was performed to calculate EC50 or CC50 values.

[2] = Alamar Blue cell viability assay; type: cell-based; settings: human
Description: Alamar Blue cell viability reagent (Cat#DAL1100 Life Technologies, Chicago, Ill.) was diluted 1 to 10 in Maintenance Media and added to the cells. Cells were incubated for 4 h at 37° C. and the fluorescence signal, which is proportional to the number of live cells, was read using a fluorimeter with excitation/emission spectra set at 560/590 nm, respectively. Data were converted into percentages of the untreated control and non-linear regression was performed to calculate CC50 values.
PHH were plated in collagen coated tissue culture plates in Plating Media and after 4-hour incubation at 37° C., cells were switched to Maintenance Media. On the next day, the cells were infected with 500 genome equivalents per cell of Genotype-A clinical isolate 21P (ProteoGenex, Culver City, Calif.) in 100 μl Maintenance Media supplemented with 4% PEG 8000 (Cat#V3011 Promega, Madison, Wis.). After an overnight incubation the inoculum was removed and the cells were washed three times with William's Media E and maintained in Maintenance Media. […] Following the transfection, the cells were incubated at 37° C. in a humidified incubator and media was changed every 3-4 days. The assay was terminated on day 14 post infection and cell viability was assessed by Alamar Blue. The collected medium was used for determination of HBsAg and HBeAg levels by MSD ELISA while cells were processed for determination of HBV RNA using qPCR.

H3K4me3 mark = assay: Western blot detection of H3K4me3 in HBV-infected PHHs; type: cell-based, human; settings: for IC50: Homo sapiens
Description: One million primary human hepatocytes (PHH) cells from three different donors were plated in 6 well collagen coated tissue culture plates in 2.5 ml Plating Media containing William's Medium E supplemented with 1% Penicillin/Streptomycin, 4 μg/mL human recombinant insulin, 2 mM glutamax, 15 mM Hepes, 1 μM dexamethasone and 5% fetal bovine serum (Life Technologies, Cat#A12176-01 Life Technologies, Chicago, Ill.) and incubated for 4-hours at 37° C. Following this incubation the media was changed to Maintenance Media (Cat#CM4000-A15564 Life Technologies, Chicago, Ill.) containing William's Medium E supplemented with 0.5% Penicillin/Streptomycin, 6.25 μg/mL human recombinant insulin, 6.25 μg/mL human transferrin, 6.25 ng/mL selenous acid, 1.25 mg/mL bovine serum albumin, 5.35 μg/mL linoleic acid, 2 mM glutamax, 15 mM Hepes, 0.1 μM dexamethasone, 2% fetal bovine serum, and 2% DMSO (Cat#D2650 Sigma, St. Louis, Mo.). The next day, cells were infected with approximately 500 genome equivalents of HBV clinical isolates 21P (GTA) or AD38 (GTD) per cell in Maintenance Media supplemented with 4% PEG 8000. Small molecule inhibitors targeting KDMs were serially diluted in Maintenance Media and added to cells at 3 days post infection (p.i.). Media with compounds was replenished every 2-3 days. Cells were harvested on day 14 p.i. by scraping the monolayer into ice-cold PBS supplemented with 5 mM Sodium Butyrate and concentrated by centrifugation at 1000×g for 5 minutes at 4° C. The cell pellets were washed twice by re-suspension in PBS and concentrated by centrifugation. The cells were lysed by suspension in Triton Extraction Buffer (TEB: PBS containing 0.5% Triton X 100 (v/v), 2 mM phenylmethylsulfonyl fluoride (PMSF), 0.02% (w/v) NaN3) at a cell density of 10^7 cells per ml and incubated on ice for 10 minutes with gentle stirring. Following centrifugation at 500 g for 10 minutes at 4° C., the supernatants were removed and the pellets were washed in 5×10^7 cells per ml TEB buffer and centrifuged as before. The pellets were re-suspended in 0.2N HCl at a cell density of 4×10^7 cells per ml and the histones were acid extracted overnight at 4° C. Samples were centrifuged at 500 g for 10 minutes at 4° C., the supematants were removed and protein content was determined using the Bradford assay. Histones were separated on a 4-20% gradient SDS gel (Mini protean TGX precast gels from BioRad), and blotted to a Hybond C-extra nitrocellulose membrane (Amersham Biosciences, RPN303E). H3K4me3 and total H3 were detected with a mixture of 1° antibodies (Cat#05-745R Millipore and Cat#14269S Cell Signaling) diluted 1:1000 in 5% skimmed milk powder in PBS containing 0.1% Tween. The western blot was washed 3 times in PBS containing 0.1% tween and incubated with 2° antibodies (Donkey anti-Mouse IRDye at 680LT Cat#926-68022 Licor Odyssey; Donkey anti-Rabbit IRDye at 800CW Cat#96-32213; Licor Odyssey) diluted 1:10000 in 5% skimmed milk powder in PBS containing 0.1% tween 20 for 1 h. Detection of infrared fluorescence was performed on Infrared Fluorescence Imaging System LI-COR. Concentration dependence of H3K4me3/H3 signal was used to calculate IC50 value for induction of H3K4 trimethylation.

HBV [3] = assay: Determination of HBV viral RNA by RT-qPCR in PHH; type: cell-based; settings: Hepatitis B virus, read-out: HBV RNA EC50
Description: Following the Alamar Blue measurement, media was removed and total RNA from the cells was isolated using the RNeasy 96 Kit (Cat#74182 Qiagen, Venlo, Netherlands). […] GAPDH mRNA levels were also measured by RT-qPCR to control for differences in cell number, toxicity, and RNA purification efficiency (Cat#4390849 Life Technologies, Chicago Ill.). HBV mRNA Ct values were normalized using their cognate GAPDH mRNA Ct values by the delta-delta-Ct calculation and then expressed as a percentage of the non-targeting scrambled control.

[4] = read-out: HBeAg EC50, HBV-infected PHH
[5] = read-out: HBsAg EC50, HBV-infected PHH
[6] = primary human hepatocytes (PHH), read-out: PHH CC50

T1 sequence (Q9BY66 whole entry): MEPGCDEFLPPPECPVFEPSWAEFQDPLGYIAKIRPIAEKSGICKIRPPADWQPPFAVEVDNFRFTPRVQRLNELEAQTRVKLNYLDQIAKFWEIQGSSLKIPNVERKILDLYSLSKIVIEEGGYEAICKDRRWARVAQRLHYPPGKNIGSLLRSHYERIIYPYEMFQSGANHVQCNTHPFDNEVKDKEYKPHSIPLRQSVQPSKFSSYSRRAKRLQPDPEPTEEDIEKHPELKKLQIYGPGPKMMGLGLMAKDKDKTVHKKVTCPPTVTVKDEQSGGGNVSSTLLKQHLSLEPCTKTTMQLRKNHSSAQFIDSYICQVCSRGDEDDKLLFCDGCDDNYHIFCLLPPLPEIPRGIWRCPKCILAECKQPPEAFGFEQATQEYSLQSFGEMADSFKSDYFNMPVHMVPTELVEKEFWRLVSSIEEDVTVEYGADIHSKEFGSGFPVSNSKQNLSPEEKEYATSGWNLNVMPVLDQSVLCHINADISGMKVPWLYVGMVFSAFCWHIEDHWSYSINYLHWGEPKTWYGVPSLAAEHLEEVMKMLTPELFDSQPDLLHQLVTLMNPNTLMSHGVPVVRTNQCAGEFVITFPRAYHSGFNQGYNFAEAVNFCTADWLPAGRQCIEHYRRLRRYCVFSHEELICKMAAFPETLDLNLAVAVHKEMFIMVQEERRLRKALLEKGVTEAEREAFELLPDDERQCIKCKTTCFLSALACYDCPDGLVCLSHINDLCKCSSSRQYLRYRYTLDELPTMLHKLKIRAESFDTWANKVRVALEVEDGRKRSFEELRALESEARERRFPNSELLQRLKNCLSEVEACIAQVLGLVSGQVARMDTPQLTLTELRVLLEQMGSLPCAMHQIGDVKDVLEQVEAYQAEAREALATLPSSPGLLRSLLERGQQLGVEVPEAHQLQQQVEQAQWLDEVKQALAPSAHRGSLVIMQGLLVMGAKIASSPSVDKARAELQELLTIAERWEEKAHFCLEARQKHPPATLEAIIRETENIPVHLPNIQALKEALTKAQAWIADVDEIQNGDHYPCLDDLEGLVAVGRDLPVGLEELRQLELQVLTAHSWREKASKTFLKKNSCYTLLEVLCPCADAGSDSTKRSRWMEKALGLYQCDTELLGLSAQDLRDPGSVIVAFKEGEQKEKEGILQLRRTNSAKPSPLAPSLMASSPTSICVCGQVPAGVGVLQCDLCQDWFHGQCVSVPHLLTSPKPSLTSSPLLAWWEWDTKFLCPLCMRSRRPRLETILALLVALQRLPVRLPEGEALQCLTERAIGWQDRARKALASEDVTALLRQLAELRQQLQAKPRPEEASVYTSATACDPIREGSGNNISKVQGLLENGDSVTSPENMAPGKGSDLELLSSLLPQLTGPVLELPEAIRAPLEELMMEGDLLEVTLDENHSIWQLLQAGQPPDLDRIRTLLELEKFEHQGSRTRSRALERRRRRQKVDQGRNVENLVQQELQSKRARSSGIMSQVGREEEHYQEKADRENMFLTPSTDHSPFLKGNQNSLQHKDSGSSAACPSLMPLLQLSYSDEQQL
Chain of KDM5A (P29375 whole entry): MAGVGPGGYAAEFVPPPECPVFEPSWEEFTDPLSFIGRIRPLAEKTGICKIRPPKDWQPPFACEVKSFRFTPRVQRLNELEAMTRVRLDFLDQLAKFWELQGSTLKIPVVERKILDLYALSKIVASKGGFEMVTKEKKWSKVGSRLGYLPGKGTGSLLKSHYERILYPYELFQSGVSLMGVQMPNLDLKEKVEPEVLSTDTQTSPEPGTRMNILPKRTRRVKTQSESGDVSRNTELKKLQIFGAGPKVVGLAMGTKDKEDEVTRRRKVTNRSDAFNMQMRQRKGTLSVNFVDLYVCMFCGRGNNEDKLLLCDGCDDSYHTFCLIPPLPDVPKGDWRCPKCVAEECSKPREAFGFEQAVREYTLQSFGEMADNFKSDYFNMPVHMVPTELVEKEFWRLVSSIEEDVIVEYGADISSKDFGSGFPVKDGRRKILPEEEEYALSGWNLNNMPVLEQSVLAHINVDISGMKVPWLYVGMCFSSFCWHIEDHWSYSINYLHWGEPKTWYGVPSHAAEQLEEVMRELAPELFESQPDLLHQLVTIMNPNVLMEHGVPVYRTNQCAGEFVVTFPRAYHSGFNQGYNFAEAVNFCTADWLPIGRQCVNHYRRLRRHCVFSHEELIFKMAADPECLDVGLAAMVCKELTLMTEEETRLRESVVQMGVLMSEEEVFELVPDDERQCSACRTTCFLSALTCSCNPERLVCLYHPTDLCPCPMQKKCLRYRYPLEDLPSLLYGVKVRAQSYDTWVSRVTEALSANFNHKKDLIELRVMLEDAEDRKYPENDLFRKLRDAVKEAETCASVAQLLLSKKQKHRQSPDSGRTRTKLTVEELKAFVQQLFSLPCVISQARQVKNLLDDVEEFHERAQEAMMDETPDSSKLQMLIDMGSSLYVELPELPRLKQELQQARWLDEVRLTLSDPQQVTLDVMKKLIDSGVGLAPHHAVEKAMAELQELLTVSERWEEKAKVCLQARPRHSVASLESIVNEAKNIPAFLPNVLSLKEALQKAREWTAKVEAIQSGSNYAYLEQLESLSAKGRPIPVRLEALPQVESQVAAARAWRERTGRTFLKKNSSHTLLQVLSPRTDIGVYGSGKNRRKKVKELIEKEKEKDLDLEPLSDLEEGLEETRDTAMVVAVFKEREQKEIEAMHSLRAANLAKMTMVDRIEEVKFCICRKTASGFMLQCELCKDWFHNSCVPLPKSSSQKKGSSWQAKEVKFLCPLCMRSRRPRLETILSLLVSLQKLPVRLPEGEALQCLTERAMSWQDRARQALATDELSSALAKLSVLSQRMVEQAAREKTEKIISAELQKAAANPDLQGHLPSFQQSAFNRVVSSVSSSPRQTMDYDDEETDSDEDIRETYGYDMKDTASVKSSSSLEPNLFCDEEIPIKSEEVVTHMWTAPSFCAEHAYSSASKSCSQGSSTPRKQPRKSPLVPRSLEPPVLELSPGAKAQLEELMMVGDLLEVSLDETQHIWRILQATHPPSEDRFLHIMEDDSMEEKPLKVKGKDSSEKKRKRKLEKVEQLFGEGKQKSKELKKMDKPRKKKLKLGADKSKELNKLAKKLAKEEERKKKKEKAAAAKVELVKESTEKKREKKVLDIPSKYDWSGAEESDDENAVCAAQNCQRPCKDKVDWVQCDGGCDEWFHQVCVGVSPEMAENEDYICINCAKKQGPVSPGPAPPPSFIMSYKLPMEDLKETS
T2 sequence (Q9UGL1 whole entry): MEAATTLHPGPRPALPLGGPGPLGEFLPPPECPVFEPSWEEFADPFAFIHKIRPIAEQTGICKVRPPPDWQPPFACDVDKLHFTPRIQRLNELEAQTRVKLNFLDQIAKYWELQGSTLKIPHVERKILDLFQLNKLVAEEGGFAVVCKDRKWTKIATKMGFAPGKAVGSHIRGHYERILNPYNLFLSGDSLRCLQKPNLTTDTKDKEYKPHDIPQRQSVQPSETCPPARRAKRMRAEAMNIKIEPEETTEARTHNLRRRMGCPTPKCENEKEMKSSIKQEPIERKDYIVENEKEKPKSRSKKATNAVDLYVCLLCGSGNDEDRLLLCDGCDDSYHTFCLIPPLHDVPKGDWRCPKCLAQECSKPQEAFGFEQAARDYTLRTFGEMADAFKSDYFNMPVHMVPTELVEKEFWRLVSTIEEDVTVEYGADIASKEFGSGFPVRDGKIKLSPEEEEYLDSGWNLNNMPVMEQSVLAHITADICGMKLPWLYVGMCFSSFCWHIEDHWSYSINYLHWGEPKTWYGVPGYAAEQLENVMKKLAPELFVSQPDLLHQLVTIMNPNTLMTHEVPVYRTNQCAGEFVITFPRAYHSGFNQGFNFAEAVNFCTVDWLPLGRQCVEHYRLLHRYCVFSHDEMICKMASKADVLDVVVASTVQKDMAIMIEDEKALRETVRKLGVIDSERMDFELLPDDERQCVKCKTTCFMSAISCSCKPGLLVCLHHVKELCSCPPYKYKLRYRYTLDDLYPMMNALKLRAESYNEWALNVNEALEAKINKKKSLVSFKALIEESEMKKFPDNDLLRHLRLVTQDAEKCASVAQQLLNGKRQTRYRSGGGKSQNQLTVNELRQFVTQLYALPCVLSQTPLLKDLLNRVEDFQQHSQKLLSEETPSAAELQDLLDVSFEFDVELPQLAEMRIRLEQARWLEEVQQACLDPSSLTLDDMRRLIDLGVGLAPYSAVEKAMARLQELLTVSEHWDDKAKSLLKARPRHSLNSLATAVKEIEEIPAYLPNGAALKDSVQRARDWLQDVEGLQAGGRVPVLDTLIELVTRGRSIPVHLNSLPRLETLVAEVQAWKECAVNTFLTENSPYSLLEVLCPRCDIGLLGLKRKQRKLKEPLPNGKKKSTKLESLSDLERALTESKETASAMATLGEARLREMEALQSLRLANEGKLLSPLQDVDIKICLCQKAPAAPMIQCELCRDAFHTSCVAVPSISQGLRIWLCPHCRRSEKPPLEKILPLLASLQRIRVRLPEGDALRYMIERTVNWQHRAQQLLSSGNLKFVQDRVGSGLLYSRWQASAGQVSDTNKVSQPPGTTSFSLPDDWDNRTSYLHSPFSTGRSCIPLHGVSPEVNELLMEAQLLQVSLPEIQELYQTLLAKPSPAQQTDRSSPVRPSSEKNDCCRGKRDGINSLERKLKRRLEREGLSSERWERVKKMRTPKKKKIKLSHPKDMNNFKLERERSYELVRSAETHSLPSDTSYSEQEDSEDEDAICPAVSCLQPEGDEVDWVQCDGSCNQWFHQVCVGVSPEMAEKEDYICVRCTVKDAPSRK

Row | Compound | EC50 (HBV [1]; [4]) | EC50 (HBV [1]; [5]) | CC50 [2] | CC50 [2, 6] | further results
1 | O=C(O)c1ccnc(-n2ncc(CCO)c2OCc2ccc(F)cc2)c1 [Example 12] | 50 µM | 50 µM | ≥ 50 µM | – | IC50 (KDM5D): 6.4 µM; IC50 (KDM5A): 1600 nM; IC50 (KDM5B): 2700 nM; IC50 (KDM4E): 9.1 µM
2 | CCN(CCN(C)C)C(=O)CNCc1cc(C=O)ccn1 [Example 15] | 0.053 µM | 0.041 µM | ≥ 50 µM | – | IC50 (H3K4me3 mark; read-out: IC50 (concentration causing a 50% increase in the H3K4me3 mark), Virus 21P (GTA), PHH 8130): 50 nM; IC50 (H3K4me3 mark; read-out: IC50 (concentration causing a 50% increase in the H3K4me3 mark), Virus 21P (GTA), PHH 8181): 30 nM; IC50 (H3K4me3 mark; read-out: IC50 (concentration causing a 50% increase in the H3K4me3 mark), Virus AD38 (GTD), PHH 4239): 20 nM; IC50 (H3K4me3 mark; read-out: IC50 (concentration causing a 50% increase in the H3K4me3 mark), Virus AD38 (GTD), PHH 8130): 50 nM; IC50 (H3K4me3 mark; read-out: IC50 (concentration causing a 50% increase in the H3K4me3 mark), Virus AD38 (GTD), PHH 8181): 40 nM; chromatin H3K4Me3 mark (H3K4me3 mark; PHH from three different donors): increase in the chromatin H3K4Me3 mark in a dose-dependent manner
3 | O=C(O)CCNc1cc(N2CCc3ccccc3CC2)nc(-c2ccccn2)n1 [Example 1, GSK-J1, reference compound] | 8.04 µM | 22.4 µM | – | ≥ 100 µM | –
4 | CCOC(=O)CCNc1cc(N2CCc3ccccc3CC2)nc(-c2ccccn2)n1 [Example 3, GSK-J4, reference compound] | 3.43 µM | 28.7 µM | – | ≥ 100 µM | –
5 | NC1CC1c1cccc(OCC[C@H](NC(=O)c2ccccc2)C(=O)NCc2ccccc2)c1 (some centres unmarked) [Example 10, NCL-1, reference compound] | 19 µM | 19.4 µM | 8.12 µM | – | –
6 | CCN(CCN(C)C)C(=O)CNCc1cc(/C=N/CCO)ccn1 [Example 16] | 0.648 µM | 0.257 µM | ≥ 50 µM | – | –
7 | O=C(O)c1ccc(O)c2ncccc12 [Example 2, 8-HQ-5-COOH, reference compound] | 32 µM | 45.8 µM | – | – | –
8 | CN(C)CCCNC(=O)c1ccc(-c2cc(O)c3ncccc3c2)cc1 [Example 5, ML-324, reference compound] | 34.5 µM | 38.4 µM | – | 69.4 µM | –
9 | Clc1ccc(N/N=C(\c2ccccc2)c2ccccn2)nc1 [Example 4, JIB-04, reference compound] | 0.9 µM | 0.9 µM | ≥ 100 µM | – | EC50 (HBV [3]; HBV-infected PHH): 4.6 µM
10 | N[C@H]1C[C@@H]1c1ccc(-c2cccc(O)c2)cc1 [Example 6, OG-L002, reference compound] | 46.7 µM | 38.3 µM | ≥ 100 µM | – | EC50 (HBV [3]): 31.6 µM
